Assay results published in the NIST ThermoML archive (doi:10.1021/acs.jced.9b00001).
Where “and” joins values, the source holds several entries; their conditions need not be identical. Equal entries are not always repeated. ± gives the expanded uncertainty stated by the source.

Conditions: Liquid, Closed cell (Static) method

FC(F)(F)/C=C/Cl [(E)-1-chloro-3,3,3-trifluoroprop-1-ene]
Conditions | vapor or sublimation pressure
253.17 K | 17.85 ± 0.33 kPa
257.16 K | 22.05 ± 0.34 kPa
260.17 K | 25.84 ± 0.34 kPa
263.21 K | 30.13 ± 0.34 kPa
267.04 K | 36.26 ± 0.35 kPa and 36.26 ± 0.36 kPa
270.14 K | 41.85 ± 0.37 kPa
273.14 K | 47.91 ± 0.37 kPa
277.11 K | 57.02 ± 0.38 kPa
280.14 K | 64.83 ± 0.39 kPa
283.09 K | 73.21 ± 0.41 kPa
287.12 K | 86.04 ± 0.42 kPa
290.14 K | 96.6 ± 0.44 kPa
290.16 K | 96.73 ± 0.44 kPa
293.09 K | 108.04 ± 0.44 kPa
293.17 K | 108.4 ± 0.45 kPa
297.15 K | 125.37 ± 0.48 kPa
297.16 K | 125.42 ± 0.49 kPa
300.15 K | 139.48 ± 0.5 kPa
303.16 K | 154.83 ± 0.51 kPa
307.16 K | 177.3 ± 0.54 kPa
310.15 K | 195.73 ± 0.57 kPa
313.15 K | 215.48 ± 0.59 kPa
317.16 K | 244.36 ± 0.62 kPa
320.16 K | 267.95 ± 0.65 kPa
323.15 K | 293.08 ± 0.67 kPa
323.25 K | 293.99 ± 0.68 kPa
323.36 K | 295.01 ± 0.69 kPa
327.16 K | 329.62 ± 0.73 kPa
330.15 K | 359.02 ± 0.77 kPa
333.14 K | 390.34 ± 0.8 kPa and 390.35 ± 0.8 kPa
333.15 K | 390.53 ± 0.81 kPa
337.15 K | 435.75 ± 0.87 kPa
340.15 K | 472.19 ± 0.92 kPa
343.13 K | 510.48 ± 0.96 kPa
343.15 K | 510.8 ± 0.96 kPa and 510.94 ± 0.87 kPa
343.19 K | 511.2 ± 0.96 kPa
347.15 K | 566.08 ± 1 kPa
350.16 K | 610.55 ± 1.1 kPa
353.18 K | 657.68 ± 1.2 kPa and 657.72 ± 1.2 kPa
353.19 K | 657.8 ± 1.2 kPa and 657.95 ± 1.1 kPa
357.16 K | 724.03 ± 1.2 kPa
360.16 K | 777.18 ± 1.3 kPa
363.17 K | 833.48 ± 1.4 kPa
363.2 K | 834.12 ± 1.4 kPa
363.23 K | 834.57 ± 1.4 kPa and 835.18 ± 1.4 kPa
367.17 K | 913.02 ± 1.5 kPa
370.17 K | 976.1 ± 1.6 kPa
373.17 K | 1042.6 ± 1.7 kPa and 1043.1 ± 1.7 kPa
373.19 K | 1043.2 ± 1.7 kPa and 1043.3 ± 1.7 kPa
377.15 K | 1136.1 ± 1.9 kPa
380.15 K | 1210.4 ± 2 kPa
383.2 K | 1289.7 ± 2.1 kPa
383.21 K | 1289.9 ± 2.1 kPa
383.22 K | 1290.5 ± 2.1 kPa and 1290.6 ± 2.1 kPa
387.16 K | 1398.3 ± 2.3 kPa
390.15 K | 1484.8 ± 2.4 kPa
393.17 K | 1576.2 ± 2.6 kPa
393.2 K | 1577.7 ± 2.6 kPa
393.21 K | 1577.4 ± 2.6 kPa and 1578 ± 2.6 kPa
397.18 K | 1704 ± 2.8 kPa
397.22 K | 1705.7 ± 2.8 kPa
400.23 K | 1806.9 ± 2.9 kPa
400.24 K | 1806.7 ± 2.9 kPa
403.14 K | 1908.4 ± 3.1 kPa
403.15 K | 1909 ± 3.1 kPa
403.22 K | 1911.4 ± 3.1 kPa and 1911.9 ± 3.1 kPa
403.26 K | 1912.9 ± 3.1 kPa
407.13 K | 2055.5 ± 3.4 kPa
408.25 K | 2098.3 ± 3.4 kPa
410.17 K | 2173.3 ± 3.5 kPa
413.1 K | 2291.7 ± 3.7 kPa
413.18 K | 2294.5 ± 3.7 kPa
413.19 K | 2294.6 ± 3.7 kPa and 2295.1 ± 3.7 kPa and 2294.9 ± 3.7 kPa
417.18 K | 2463.9 ± 4 kPa
418.23 K | 2510.4 ± 4.1 kPa
420.13 K | 2595.8 ± 4.2 kPa
423.15 K | 2735.4 ± 4.5 kPa and 2736 ± 4.5 kPa
423.18 K | 2737.1 ± 4.5 kPa
423.19 K | 2737.5 ± 4.5 kPa
427.19 K | 2932.7 ± 4.8 kPa
430.25 K | 3090.6 ± 5 kPa
